Laboratory results from PubChem BioAssay AID2060326 (Molecular Pharmacology Branch, DTP, NCI, 2025).

Tested on: MDA-MB-468 multi-cell spheroids, viability
Test: Anticancer human tumor MDA-MB-468 cell line growth inhibition [IpAb];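 also: spheroids exposed to agents for seven days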;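 as to viability, T/C: 100% = DMSO vehicle control viability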
Settings: for IC50: curve of first compound; for viability, T/C: stronger effect = lower value
In short: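 Multi-cell spheroids of 60% tumour cells, 25% HUVEC and 15% MSC in ultra-low-attachment U-bottom wells, treated with agents combined with ipatasertib or abemaciclib. Half-log ranges top out near clinical Cmax, or 10 microM when Cmax is unknown.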

[1] = second compound 0.01 µM, first compound 0.0316 µM
[2] = second compound 0.01 µM, first compound 0.1 µM
[3] = second compound 0.01 µM, first compound 0.316 µM
[4] = second compound 0.01 µM, first compound 1 µM
[5] = second compound 0.01 µM, first compound 3.16 µM
[6] = second compound 0.01 µM, first compound 10 µM
[7] = second compound 0.0316 µM, first compound 0.0316 µM
[8] = second compound 0.0316 µM, first compound 0.1 µM
[9] = second compound 0.0316 µM, first compound 0.316 µM
[10] = second compound 0.0316 µM, first compound 1 µM
[11] = second compound 0.0316 µM, first compound 3.16 µM
[12] = second compound 0.0316 µM, first compound 10 µM
[13] = second compound 0.1 µM, first compound 0.0316 µM
[14] = second compound 0.1 µM, first compound 0.1 µM
[15] = second compound 0.1 µM, first compound 0.316 µM
[16] = second compound 0.1 µM, first compound 1 µM
[17] = second compound 0.1 µM, first compound 3.16 µM
[18] = second compound 0.1 µM, first compound 10 µM
[19] = second compound 0.316 µM, first compound 0.0316 µM
[20] = second compound 0.316 µM, first compound 0.1 µM
[21] = second compound 0.316 µM, first compound 0.316 µM
[22] = second compound 0.316 µM, first compound 1 µM
[23] = second compound 0.316 µM, first compound 3.16 µM
[24] = second compound 0.316 µM, first compound 10 µM
[25] = second compound 1 µM, first compound 0.0316 µM
[26] = second compound 1 µM, first compound 0.1 µM
[27] = second compound 1 µM, first compound 0.316 µM
[28] = second compound 1 µM, first compound 1 µM
[29] = second compound 1 µM, first compound 3.16 µM
[30] = second compound 1 µM, first compound 10 µM

Structure (SMILES)	IC50 (second compound 0.01 µM)	IC50 (second compound 0.0316 µM)	IC50 (second compound 0.1 µM)	IC50 (second compound 0.316 µM)	IC50 (second compound 1 µM)	viability, T/C [1]	viability, T/C [2]	viability, T/C [3]	viability, T/C [4]	viability, T/C [5]	viability, T/C [6]	viability, T/C [7]	viability, T/C [8]	viability, T/C [9]	viability, T/C [13]	viability, T/C [14]	viability, T/C [19]	viability, T/C [20]	viability, T/C [25]	viability, T/C [26]	also measured
C=CC(=O)N1CCN(c2nc(=O)n(-c3c(C)ccnc3C(C)C)c3nc(-c4c(O)cccc4F)c(F)cc23)C(C)C1 (stereo not given) + CCN1CCN(Cc2ccc(Nc3ncc(F)c(-c4cc(F)c5nc(C)n(C(C)C)c5c4)n3)nc2)CC1	7470 nM	7210 nM	6740 nM	6440 nM	7150 nM	109%	117%	110%	113%	93.2%	35.1%	98.6%	90.9%	108%	101%	106%	103%	108%	84.2%	73%	viability, T/C [10]: 91.7%; viability, T/C [11]: 79.8%; viability, T/C [12]: 38.3%; viability, T/C [15]: 100%; viability, T/C [16]: 110%; viability, T/C [17]: 97.6%; viability, T/C [18]: 24.8%; viability, T/C [21]: 116%; viability, T/C [22]: 103%; viability, T/C [23]: 83.7%; viability, T/C [24]: 29.2%; viability, T/C [27]: 81.8%; viability, T/C [28]: 82.7%; viability, T/C [29]: 74.7%; viability, T/C [30]: 39.6%
Cn1ncc(Cl)c1-c1cc(C(=O)NC(CN)Cc2cccc(F)c2)sc1Cl (stereo not given) + CCN1CCN(Cc2ccc(Nc3ncc(F)c(-c4cc(F)c5nc(C)n(C(C)C)c5c4)n3)nc2)CC1	461 nM	319 nM	318 nM	396 nM	223 nM	88.4%	74.1%	57.7%	36.6%	11.8%	0.13%	97.3%	58.5%	48%	109%	72%	81.2%	72.6%	81.5%	52.9%	viability, T/C [10]: 34.1%; viability, T/C [11]: 15.1%; viability, T/C [12]: 0.12%; viability, T/C [15]: 51.5%; viability, T/C [16]: 31.8%; viability, T/C [17]: 11.2%; viability, T/C [18]: 0.11%; viability, T/C [21]: 53.4%; viability, T/C [22]: 32.6%; viability, T/C [23]: 5.2%; viability, T/C [24]: 0.11%; viability, T/C [27]: 53.4%; viability, T/C [28]: 26%; viability, T/C [29]: 2.78%; viability, T/C [30]: 0.19%
Cn1ncnc1[C@H]1c2n[nH]c(=O)c3cc(F)cc(c23)N[C@@H]1c1ccc(F)cc1 + CCN1CCN(Cc2ccc(Nc3ncc(F)c(-c4cc(F)c5nc(C)n(C(C)C)c5c4)n3)nc2)CC1	> 100 nM	> 100 nM	> 100 nM	> 100 nM	> 100 nM	89.6%	63.1%					91.6%	54%		78.5%	63.7%	78.2%	70.1%	66.6%	68.9%	viability, T/C (second compound 0.01 µM, first compound 0.000316 µM): 89%; viability, T/C (second compound 0.01 µM, first compound 0.001 µM): 91.1%; viability, T/C (second compound 0.01 µM, first compound 0.00316 µM): 89.2%; viability, T/C (second compound 0.01 µM, first compound 0.01 µM): 82.8%; viability, T/C (second compound 0.0316 µM, first compound 0.000316 µM): 89.1%; viability, T/C (second compound 0.0316 µM, first compound 0.001 µM): 82.4%; viability, T/C (second compound 0.0316 µM, first compound 0.00316 µM): 92%; viability, T/C (second compound 0.0316 µM, first compound 0.01 µM): 73.2%; viability, T/C (second compound 0.1 µM, first compound 0.000316 µM): 92%; viability, T/C (second compound 0.1 µM, first compound 0.001 µM): 103%; viability, T/C (second compound 0.1 µM, first compound 0.00316 µM): 94.9%; viability, T/C (second compound 0.1 µM, first compound 0.01 µM): 97.5%; viability, T/C (second compound 0.316 µM, first compound 0.000316 µM): 92.8%; viability, T/C (second compound 0.316 µM, first compound 0.001 µM): 85%; viability, T/C (second compound 0.316 µM, first compound 0.00316 µM): 86.6%; viability, T/C (second compound 0.316 µM, first compound 0.01 µM): 90.2%; viability, T/C (second compound 1 µM, first compound 0.000316 µM): 86.7%; viability, T/C (second compound 1 µM, first compound 0.001 µM): 83.5%; viability, T/C (second compound 1 µM, first compound 0.00316 µM): 82.3%; viability, T/C (second compound 1 µM, first compound 0.01 µM): 68.2%
